In US20240059735A1, “COMPOSITIONS AND METHODS FOR THE PREVENTION AND TREATMENT OF MIT[…]” (Stealth BioTherapeutics Inc., priority 2016, published 2024):
Where a SMILES comes first, the peptide text is derived from it. [ ]: non-standard residue; d: D form. Dmt = Cc1cc(O)cc(C)c1C[C@H](N)C(=O)O

Legend:
[1] = test system: several mammalian cell types; settings: cited from earlier work
[2] = 0.01-0.25 mg/kg/hr IV, five days
Description: Control mitochondrial myopathy subjects (Group 4) received equal volumes of saline solution administered for two hours. All groups were treated for five consecutive days. The demographics of the subjects are disclosed in Table 5.

## 2′,6′-Dmt-D-Arg-Phe-Lys-NH2
[1]
  penetration of the plasma membrane: readily penetrates the plasma membrane of several mammalian cell types in an energy-independent manner

## Cc1cc(O)cc(C)c1C[C@H](NC(=O)[C@H](N)CCCNC(=N)N)C(=O)N[C@@H](CCCCN)C(=O)N[C@@H](Cc1ccccc1)C(N)=O [D-Arg-2′,6′-Dmt-Lys-Phe-NH2] (H-[dR][Dmt]KF-NH2)
[2]
  serious adverse events: None of the test subjects exhibited any serious adverse events
  vital signs, electrocardiograms, clinical laboratory findings: no significant trends changes
